Measurements taken from US8143889B2, “Simultaneous acquisitions of spin- and stimulated-echo planar imaging” (University of Utah Research Foundation, priority 2009, dated 2012).

Tests used:
Format in all cases: physicochemical
[1] = T1 and turbo-FLASH signal intensity on phantom with different concentrations of Gd-BOPTA
Procedure: The results are plotted in FIG. 12. […] The dosage 0.1˜0.2 mM [PBCA]/kg is the routine dosage for DCE-MRI and local concentrations may easily exceed 0.2˜0.4 mM/kg in organs with high-blood supply or at the periphery of a tumor. The signal behavior of the gradient-echo MRI varies widely with the selection of TR, TE, and flipangle, and for T1. Although a set of these imaging parameters may be linear for a small range of PBCA concentrations and specific T1, it will not be linear for other T1 values. […] Thus, direct conversion of SI to the concentration is subject to large error, which will be propagated into the subsequent kinetic calculation. In contrast, the realtime T1 mapping provided by embodiments of the invention described above is linearly related to the PBCA concentration. Thus, the realtime T1 mapping provides accurate realtime estimation of the PBCA concentration resulting in improvement of the accuracy of drug-delivery or tumor evaluation.

[2] = T1 of MnCl2/water phantom by saturation-recovery spin-echo; settings: 3 Tesla
Procedure: (§1) MRI studies were performed on a Siemens Trio 3 Tesla MRI system (Siemens Medical Solutions, Erlangen, Germany) with Avanto gradients (45 mT/m strength and 150 T/m/s slew rate). The pulse sequence was developed based on a singleshot spin-echo EPI sequence, using the IDEA pulse sequence development environment. Realtime calculation of T1 mapping was implemented into a custom-made ICE program (Image Construction Environment). The image construction program produced two magnitude images, two phase images, and a T1 map for each slice.
A phantom was constructed with four 20 cc plastic bottles filled with 0.05, 0.1, 0.2, and 0.4 mM MnCl2/water solutions, respectively, and immersed in jello in a rectangular acrylic container with dimensions 8×8×13 cm^3. The T1 of each concentration was 1.3, 0.9, 0.55, 0.35 sec for 0.05, 0.1, 0.2, 0.4 mM, respectively. T1 of the phantom was measured using saturation-recovery spin-echo.

[3] = T1 mapping of MnCl2/water phantom by inversion-recovery spin-echo (IR-SE) imaging and 2D ss-SGSTEPI; settings: 3 Tesla
Procedure: as §1
A phantom was constructed with 4 plastic bottles filled with MnCl2/water solutions with concentrations of 0.05, 0.1, 0.2, and 0.4 mM, which were surrounded by jello. T1 mapping experiment was conducted using inversion-recovery spin-echo (IR-SE) imaging and 2D ss-SGSTEPI. T1 of each concentration of MnCl2/water solution were measured as 1.5, 0.89, 0.55, 0.35 sec for […], respectively.

| SMILES | T1 relaxation rate (1/T1) of the water proton vs. concentration ([1]; FIG. 12(b)) | signal intensities of turboFLASH and spin-EPI vs. concentration ([1]; TR/TE=7.2/2.7 ms, flipangle 30°, FIG. 12(a)) | T1 ([2]; 0.05 mM MnCl2/water solution) [s] | T1 ([2]; 0.1 mM MnCl2/water solution) [s] | T1 ([2]; 0.2 mM MnCl2/water solution) [s] | T1 ([2]; 0.4 mM MnCl2/water solution) [s] | T1 ([3]; 0.05 mM MnCl2/water solution) [s] | T1 ([3]; 0.1 mM MnCl2/water solution) [s] | T1 ([3]; 0.2 mM MnCl2/water solution) [s] | T1 ([3]; 0.5 mM MnCl2/water solution) [s] |
| --- | --- | --- | --- | --- | --- | --- | --- | --- | --- | --- |
| CNC[C@H](O)[C@@H](O)[C@H](O)[C@H](O)CO.CNC[C@H](O)[C@@H](O)[C@H](O)[C@H](O)CO.O=C([O-])CN(CCN(CC(=O)[O-])CC(=O)O)CCN(CC(=O)O)C(COCc1ccccc1)C(=O)[O-].[Gd+3] (stereo not shown) [Gd-BOPTA, Gadobenate dimeglumine] | very linear with the concentration | non-linear even at low concentration |  |  |  |  |  |  |  |  |
| [Cl][Mn][Cl] [MnCl2] |  |  | 1.3 | 0.9 | 0.55 | 0.35 | 1.5 | 0.89 | 0.55 | 0.35 |
